Here are results for four molecules from US5071857A, “2,6-dioxopiperidine derivatives, their preparation and pharmaceutical compositions containing them” (National Research Development Corporation, priority 1983, dated 1991).

For series [1] the following is noted: prior art; cited from earlier work.
Series [2] deals with T1, desmolase (Bos taurus, UniProt P00189).
T1 construct: The mitochondrial fraction of bovine adrenal cortex provided the source of desmolase; from tissue; host or cells: bovine adrenal cortex, mitochondrial fraction
T1 sequence (P00189 40-520): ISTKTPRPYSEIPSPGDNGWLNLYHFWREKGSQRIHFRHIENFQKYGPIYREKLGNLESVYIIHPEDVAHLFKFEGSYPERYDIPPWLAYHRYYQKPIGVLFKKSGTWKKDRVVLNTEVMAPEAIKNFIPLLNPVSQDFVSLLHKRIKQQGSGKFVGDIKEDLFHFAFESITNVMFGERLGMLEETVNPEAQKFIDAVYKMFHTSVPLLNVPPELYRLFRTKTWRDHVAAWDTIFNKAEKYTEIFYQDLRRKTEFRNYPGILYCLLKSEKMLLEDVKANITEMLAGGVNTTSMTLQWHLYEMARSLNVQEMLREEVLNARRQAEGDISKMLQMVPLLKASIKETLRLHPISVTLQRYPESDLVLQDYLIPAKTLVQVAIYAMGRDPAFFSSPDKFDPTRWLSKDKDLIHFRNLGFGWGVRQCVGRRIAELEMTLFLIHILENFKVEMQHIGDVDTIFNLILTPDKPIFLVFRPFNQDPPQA
The series can be described thus: Inhibition of desmolase (mitochondrial fraction of bovine adrenal cortex, 14C-isocaproic acid release from (26-14C)-cholesterol). Format: biochemical.

Series [3] relates to Rat mammary tumours induced with MNU (N-methyl-N-nitrosourea). The series can be described thus: Tests in vivo on tumour regression, MNU-induced rat mammary tumours. Further details: species or system rat (Ludwig Wistar/Ola, WF/ICRF/Ola, female). Particulars: for percentage of tumours which regress (in words): 42 days; for percentage of tumours which regress (in words) / No. tumours grown by more than 100% / No. tumours grown by up to 100% / No. tumours regressed but by less than 50% / No. tumours regressed by 50% or more / No. tumours with no change: 0.165 millimoles/kg/day s.c.; for No. tumours grown by more than 100% / No. tumours grown by up to 100% / No. tumours regressed but by less than 50% / No. tumours regressed by 50% or more / No. tumours with no change: after 6 weeks (42 days). On the procedure: Unlike DMBA (7,12-dimethylbenz[a]anthracene) induced tumours, MNU tumours may be primarily oestrogen-, rather than prolactin-dependent, see Pruitt, Rose and Bryan, Proc. Ann. Cancer Res. 20, 87, (1979).
Using the method of Williams et al., supra, mammary tumours were induced in virgin female rats of the inbred strain Ludwig Wistar/Ola (WF/ICRF/Ola) by intravenous administration of MNU. MNU was dissolved in 0.9% aqueous sodium chloride solution acidified to pH 5 with acetic acid. Starting at age 50 days, each rat received 3 injections at 14 day intervals via the tail vein (5 mg MNU/100 g body weight/injection; injection volume of 0.5 ml/rat). Animals were assigned to experimental groups at 125-140 days after the first injection, with 12 animals in each group. At this time they bore from 1-3 tumours per animal.
Controls received equivalent injections of DMSO alone.
Results were expressed in terms of the percentage of initial tumour volume for each tumour after 42 day, treatment.

Series [4] is described as follows: Stability of injection solutions at pH 3.5-4. The class given is physicochemical. On the procedure:
This went into solution at low pH very nicely. M NaOH was added to pH 3.5-4. The volume was made up using deionized water.

Series [5] has as its system desmolase. Particulars: background; cited from earlier work.
Series [6] relates to central nervous system. Put plainly: Behavioral observations (Irwin observational assessment). Particulars: for Passivity: rating 0-4, 20-30 minutes after injection.
The subject of series [7] is central nervous system. The series can be described thus: Rotating rod experiments (rotarod test), drug-induced ataxia. The note with it: for time of peak effect after injection: i.p. A general note: In the rotarod test animals must keep their balance on a rotating rod.
In series [8] the test system is central nervous system. The series can be described thus: Studies on anticonvulsant properties, pentylenetetrazol-induced convulsions. Particulars: for prevention of pentylenetetrazol-induced convulsions: pentylenetetrazol 50 mg/kg.
Where [9] appears, read: compared with aminoglutethimide.

Each structure is given as a SMILES string.

For `CCC1(c2ccccn2)CCC(=O)NC1=O` (centres unmarked) [3-ethyl-3-(2-pyridyl)-glutarimide], the “sedative, hypnotic or anti-convulsive effect” value in series [1] is “sedative and hypnotic effect”.

Take `CCC1(c2ccccc2)CCC(=O)NC1=O` (centres unmarked) [glutethimide, 3-ethyl-3-phenylglutarimide]: the “sedative, hypnotic or anti-convulsive effect” value in series [1] is “sedative and hypnotic agent”.

Regarding `CCC1(c2ccc(N)cc2)CCC(=O)NC1=O` (centres unmarked) [aminoglutethimide, 3-ethyl-3-(4-aminophenyl)glutarimide, reference compound], on desmolase [2], the Desmolase inhibition entry is given as “+ + +”. Besides, 30 µM corresponded to half-maximal inhibition on desmolase [2] (7 micromolar (14C) cholesterol) (IC50). Further, in series [3], the “percentage of tumours which regress (in words)” value was “causes an increase in the percentage of tumours which regress”, the “No. tumours grown by more than 100%” value came out at 5 tumours, the “No. tumours grown by up to 100%” value is 2 tumours and the “No. tumours regressed but by less than 50%” value is 3 tumours. In addition, in series [3], the “No. tumours regressed by 50% or more” value was found to be 4 tumours and the “No. tumours with no change” value is given as 0 tumours. Also, in series [4] (40 mg in 2 ml), the “time after which salt precipitated from solution” value was above 2 h. Further, the inhibition of desmolase result in the series with desmolase [5] was “also inhibits the enzyme desmolase”. In the series on central nervous system [6] (100 mg/kg i.p.), the Corneal reflex entry is “+”, the Flexor reflex result is given as “Inc”, the Grooming entry is given as “+” and the Motor activity entry was “Dec”. Further, in the series on central nervous system [6] (100 mg/kg i.p.), the Righting reflex result was “+”; the Tremors result is recorded as “-”; the Twitches result is given as “-”; the “corneal, righting and flexor reflexes (in words)” value was “Corneal, righting and flexor reflexes were still apparent”. Further, in the series with central nervous system [6] (100 mg/kg i.p.), the “sedation (in words)” value is “marked sedation” and the Passivity is reported as 3. The “flexor reflex (in words)” value with central nervous system [6] (100 mg/kg i.p., compared to untreated animals) is “slightly augmented”. For the same molecule, the “sleep (in words)” value in the series on central nervous system [6] (200 mg/kg i.p., three animals) is on record as “all fell asleep within a few minutes of the injection”. In the series on central nervous system [7] (100 mg/kg i.p. (Table 3)), the “effect on motor co-ordination (in words)” value is “pronounced effect on motor co-ordination. Most of the mice were heavily sedated and thus completely unable to maintain themselves on the rod at either speed”. For the same molecule, in the series on central nervous system [7] (1 r.p.m., 15 min, 100 mg/kg i.p.), the Falls/2 min stood at 18.5 ± 3.5 Falls/2 min. The same molecule returned a Falls/2 min in the series on central nervous system [7] (1 r.p.m., 30 min, 100 mg/kg i.p.) of 4.8 ± 2.0 Falls/2 min. The same molecule returned a Falls/2 min with central nervous system [7] (3 r.p.m., 15 min, 100 mg/kg i.p.) of 27.0 ± 2.0 Falls/2 min. The “time of peak effect after injection” value with central nervous system [7] stood at 15 min. In addition, the “prevention of pentylenetetrazol-induced convulsions” value in the series with central nervous system [8] (i.p., dose not stated) is given as “prevented convulsions”.

Consider `CCC1(c2ccncc2)CCC(=O)NC1=O` (centres unmarked) [3-ethyl-3-(4-pyridyl)glutarimide, 3-ethyl-3-(4-pyridyl)-2,6-piperidinedione], for which, on desmolase [2], the “Desmolase inhibition (in words)” value was “inhibits aromatase but not desmolase”. Also, the “IC50 Desmolase” value on desmolase [2] (7 micromolar (14C) cholesterol) was “None”. Besides, in series [3], the “percentage of tumours which regress (in words)” value was “shows a similar effect”, the “No. tumours grown by more than 100%” value came to 8 tumours, the “No. tumours grown by up to 100%” value turned out to be 6 tumours and the “No. tumours regressed but by less than 50%” value was determined as 3 tumours. In series [3], the “No. tumours regressed by 50% or more” value is recorded as 9 tumours and the “No. tumours with no change” value is on record as 1 tumours. Also, the “inhibition of tumour growth (in words)” value in series [3] (setting [9]) is “at least as effective an inhibitor of tumour growth in this assay as aminoglutethimide”. Also, in series [4] (50 mg), the “time within which salt came out of solution” value is at most 15 min. In the series on central nervous system [6] (200 mg/kg i.p.), the Abnormal gait result is given as “-”, the Corneal reflex result is “+”, the Flexor reflex entry is “+” and the Grooming result was “-”. Also, in the series on central nervous system [6] (200 mg/kg i.p.), the Motor activity entry was “N”, the Righting reflex entry is on record as “+”, the Tremors entry is “-” and the Twitches entry is on record as “-”. In addition, in the series on central nervous system [6] (200 mg/kg i.p.), the “observable differences from control mice (in words)” value is “no grossly observable differences from the control mice” and the Passivity came out at 0. In the series with central nervous system [6] (300 mg/kg i.p.), the Abnormal gait entry is “-”, the Corneal reflex result was “+”, the Flexor reflex result was “+” and the Grooming entry is recorded as “+”. In addition, in the series on central nervous system [6] (300 mg/kg i.p.), the Motor activity result was “N”, the Righting reflex entry is “+”, the Tremors result is recorded as “-” and the Twitches entry was “-”. In addition, in the series on central nervous system [6] (300 mg/kg i.p.), the “spontaneous motor activity and struggle response (in words)” value was “some mice showed slight reduction in spontaneous motor activity and diminished struggle response”. In the series on central nervous system [6] (400 mg/kg i.p.), the Corneal reflex entry was “+”, the Flexor reflex entry is “+”, the Grooming entry is “+” and the Motor activity entry was “Dec”. In addition, in the series with central nervous system [6] (400 mg/kg i.p.), the Righting reflex entry is recorded as “+”; the Tremors result was “-”; the Twitches entry is “-”; the “activity, passivity and hindlimb control (in words)” value was “all mice were noticeably less active, more passive and had lost some control of their hindlimbs”. Moreover, in the series on central nervous system [6] (400 mg/kg i.p.), the “reflexes (in words)” value was “All reflexes were still evident and the augmented flexor reflex, as had been noted with APG and CPZ-treated animals, was not present”; the Passivity is reported as 3. Moreover, in the series with central nervous system [6] (500 mg/kg i.p., three mice), the lethality result is on record as “lethal to the three mice tested”. Also, the sedative side-effects result in the series on central nervous system [6] (setting [9]) is given as “lower than that of aminoglutethimide”. Also, in the series with central nervous system [7] (300 mg/kg i.p.), the “effect on motor co-ordination (in words)” value is reported as “little difference from the control”. Also, the “effect on motor co-ordination (in words)” value in the series with central nervous system [7] (400 mg/kg i.p.) was “the mice became more rigid, and while falling off the faster rod more frequently they tended to slump round the slowly rotating rod, and so stay on for a longer time”. For the same molecule, the Falls/2 min with central nervous system [7] (1 r.p.m., 15 min, 300 mg/kg i.p.) was determined as 0.6 ± 0.3 Falls/2 min. The Falls/2 min in the series on central nervous system [7] (1 r.p.m., 15 min, 400 mg/kg i.p.) came out at 0.8 ± 0.4 Falls/2 min. The molecule also showed a Falls/2 min in the series with central nervous system [7] (1 r.p.m., 30 min, 400 mg/kg i.p.) of 0.4 ± 0.2 Falls/2 min. Further, the Falls/2 min in the series with central nervous system [7] (3 r.p.m., 15 min, 300 mg/kg i.p.) was determined as 1.5 ± 0.5 Falls/2 min. In the series with central nervous system [7] (3 r.p.m., 15 min, 400 mg/kg i.p.), this molecule gave a Falls/2 min of 4.8 ± 1.0 Falls/2 min. The Falls/2 min in the series with central nervous system [7] (3 r.p.m., 30 min, 300 mg/kg i.p.) was determined as 2.0 ± 0.2 Falls/2 min. The molecule further came in with a Falls/2 min in the series with central nervous system [7] (3 r.p.m., 30 min, 400 mg/kg i.p.) of 3.6 ± 1.3 Falls/2 min. Besides, the “time of peak effect after injection” value in the series on central nervous system [7] was determined as 15 min. Moreover, in the series with central nervous system [8] (400, 300 and 200 mg/kg i.p.), the “prevention of pentylenetetrazol-induced convulsions” value is recorded as “None of these doses prevented the pentylenetetrazol-induced convulsions”. Also, the anti-convulsant side-effects result in the series on central nervous system [8] (setting [9]) is “lower than that of aminoglutethimide”.
